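1) Cells in 96-well plates. 2) Compound, 48 h, 5 concentrations. 3) Linear interpolation between surrounding doses. 4) Unreached endpoint = highest concentration. GI50: concentration for 50% inhibition of growth.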 The source made the active and inactive calls. No stated cut-off is given here; in the data, active = GI50 up to about 1.1 µM and inactive = higher.
Key:
Assay in all cases: growth of human tumour cells (NCI), 48 h
HOP-62 = tested on: HOP-62
MOLT-4 = tested on: MOLT-4
IGROV-1 = tested on: IGROV-1
T47D = tested on: T47D
Malme-3M = tested on: Malme-3M
CCRF-CEM = tested on: CCRF-CEM
MDA-N = tested on: MDA-N
MDA-MB-231 = tested on: MDA-MB-231
NCI/ADR-RES = tested on: NCI/ADR-RES
NCI-H23 = tested on: NCI-H23
NCI-H226 = tested on: NCI-H226
A549 = tested on: A549
MDA-MB-435 = tested on: MDA-MB-435
TK-10 = tested on: TK-10
SNB-75 = tested on: SNB-75
RXF 393 = tested on: RXF 393
786-0 = tested on: 786-0
OVCAR-3 = tested on: OVCAR-3
NCI-H460 = tested on: NCI-H460
SF-268 = tested on: SF-268

Measured: GI50

Cc1ccc(S(=O)(=O)N/N=C2\C3CC4CC(C3)C2C4)cc1 (centres undefined)
inactive: HOP-62 > 100 µM | MOLT-4 > 100 µM | IGROV-1 > 100 µM | T47D > 100 µM | Malme-3M > 100 µM | CCRF-CEM > 100 µM | MDA-N > 100 µM | MDA-MB-231 > 100 µM | NCI/ADR-RES > 100 µM | NCI-H23 > 100 µM | NCI-H226 > 100 µM | A549 > 100 µM | MDA-MB-435 > 100 µM | TK-10 > 100 µM | SNB-75 > 100 µM | RXF 393 > 100 µM | 786-0 > 100 µM | OVCAR-3 > 100 µM | NCI-H460 > 100 µM

CC(C)(C)OC(=O)NNCC(O)COc1ccccc1 (centres undefined)
inactive: HOP-62 > 100 µM | MOLT-4 > 100 µM | IGROV-1 > 100 µM | T47D > 100 µM | Malme-3M > 100 µM | CCRF-CEM > 100 µM | SF-268 > 100 µM | MDA-N > 100 µM | MDA-MB-231 > 100 µM | NCI/ADR-RES > 100 µM | NCI-H23 > 100 µM | NCI-H226 > 100 µM | A549 > 100 µM | MDA-MB-435 > 100 µM | TK-10 > 100 µM | RXF 393 > 100 µM | 786-0 > 100 µM | OVCAR-3 > 100 µM | NCI-H460 > 100 µM

CC(C)N(C(=O)C12C3(C(=O)C(C)(C)C)C4C5(C#N)C3C1(C(=O)C(C)(C)C)C5C42C(=O)C(C)(C)C)C(C)C (centres undefined)
inactive: HOP-62 > 100 µM | MOLT-4 > 100 µM | IGROV-1 > 100 µM | T47D > 100 µM | CCRF-CEM > 100 µM | SF-268 > 100 µM | MDA-N > 100 µM | MDA-MB-231 > 100 µM | NCI/ADR-RES > 100 µM | NCI-H23 > 100 µM | A549 > 100 µM | MDA-MB-435 > 100 µM | TK-10 > 100 µM | SNB-75 14.1 µM | RXF 393 > 100 µM | 786-0 > 100 µM | OVCAR-3 > 100 µM | NCI-H460 > 100 µM

O=C(Oc1cncc(Cl)c1)c1cc2ccccc2sc1=O
inactive: HOP-62 54.3 µM | MOLT-4 23.7 µM | IGROV-1 49.5 µM | T47D > 100 µM | Malme-3M 34.2 µM | SF-268 49.5 µM | MDA-N 78.2 µM | MDA-MB-231 61.5 µM | NCI/ADR-RES 78.3 µM | NCI-H23 58.7 µM | NCI-H226 22.4 µM | A549 > 100 µM | MDA-MB-435 29.5 µM | TK-10 76.7 µM | SNB-75 27.8 µM | RXF 393 23 µM | 786-0 63.5 µM | OVCAR-3 60.5 µM | NCI-H460 82.8 µM

CC(=O)OCC1OC(n2c(C)c(/N=N/c3ccc(C)cc3)c(C)c(C#N)c2=S)C(OC(C)=O)C(OC(C)=O)C1OC(C)=O (centres undefined)
inactive: HOP-62 > 100 µM | MOLT-4 > 100 µM | IGROV-1 > 100 µM | T47D > 100 µM | Malme-3M 79.3 µM | CCRF-CEM > 100 µM | SF-268 > 100 µM | MDA-N > 100 µM | MDA-MB-231 48.6 µM | NCI/ADR-RES > 100 µM | NCI-H23 > 100 µM | A549 > 100 µM | MDA-MB-435 > 100 µM | TK-10 > 100 µM | SNB-75 60.4 µM | RXF 393 > 100 µM | 786-0 27.4 µM | OVCAR-3 > 100 µM | NCI-H460 > 100 µM

NS(=O)(=O)c1nnc(NSc2ccc([N+](=O)[O-])cc2)s1
inactive: HOP-62 > 100 µM | MOLT-4 40.8 µM | T47D > 100 µM | Malme-3M > 100 µM | SF-268 > 100 µM | MDA-N > 100 µM | MDA-MB-231 > 100 µM | NCI/ADR-RES > 100 µM | NCI-H23 > 100 µM | NCI-H226 > 100 µM | A549 > 100 µM | MDA-MB-435 > 100 µM | TK-10 > 100 µM | RXF 393 > 100 µM | 786-0 > 100 µM | OVCAR-3 > 100 µM | NCI-H460 > 100 µM

CC12CCC3[C@@H](CC3(C)C)C(O)(CCC1=O)C2 (some centres undefined)
inactive: HOP-62 > 100 µM | MOLT-4 > 100 µM | IGROV-1 > 100 µM | T47D > 100 µM | Malme-3M > 100 µM | CCRF-CEM > 100 µM | SF-268 > 100 µM | MDA-N > 100 µM | MDA-MB-231 > 100 µM | NCI/ADR-RES > 100 µM | NCI-H23 > 100 µM | NCI-H226 > 100 µM | A549 > 100 µM | MDA-MB-435 > 100 µM | TK-10 > 100 µM | SNB-75 > 100 µM | 786-0 > 100 µM | OVCAR-3 > 100 µM

Source: ChEMBL document CHEMBL1201862, “PubChem BioAssay data set” (2004)
